Measurements: patent publication US8552002B2 (Novartis AG, priority 2004, dated 2013)

Assays:
Format in all cases: biochemical
[1] = target: T1, FGFR3 (K650E) (Homo sapiens, UniProt P22607, K650E); experiment: Recombinant GST-FGFR-3-K650E tyrosine kinase assay (33P into poly(Glu,Tyr)); conditions: 10 μM; Examples 1 to 169; read-out: FGFR3 (K650E) inhibition at 10 μM
T1 construct: amino acids 411-806 of the cytoplasmic domain of human FGFR-3, N-terminally fused to GST; made in house; host or cells: Sf9 insect cells (baculovirus)
T1 sequence (P22607 411-806 K650E): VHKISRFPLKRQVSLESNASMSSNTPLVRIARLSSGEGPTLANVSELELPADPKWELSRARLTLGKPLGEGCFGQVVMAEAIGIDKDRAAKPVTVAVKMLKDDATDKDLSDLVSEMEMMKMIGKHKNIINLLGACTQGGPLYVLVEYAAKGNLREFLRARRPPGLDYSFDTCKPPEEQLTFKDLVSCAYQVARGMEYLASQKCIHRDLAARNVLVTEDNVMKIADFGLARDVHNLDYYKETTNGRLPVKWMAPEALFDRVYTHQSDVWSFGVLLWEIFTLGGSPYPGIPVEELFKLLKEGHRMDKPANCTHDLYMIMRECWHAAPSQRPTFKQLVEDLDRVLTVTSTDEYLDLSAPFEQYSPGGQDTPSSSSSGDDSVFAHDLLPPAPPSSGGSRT

[2] = target: T2, KDR (Homo sapiens, UniProt P35968); experiment: Inhibitory activity against KDR (VEGF-R2), in vitro data of Examples 170 and 207; conditions: 10 μM; Examples 1 to 169; read-out: KDR inhibition at 10 μM
T2 construct: expressed in transfected cells; host or cells: CHO cells
T2 sequence (P35968 20-1356): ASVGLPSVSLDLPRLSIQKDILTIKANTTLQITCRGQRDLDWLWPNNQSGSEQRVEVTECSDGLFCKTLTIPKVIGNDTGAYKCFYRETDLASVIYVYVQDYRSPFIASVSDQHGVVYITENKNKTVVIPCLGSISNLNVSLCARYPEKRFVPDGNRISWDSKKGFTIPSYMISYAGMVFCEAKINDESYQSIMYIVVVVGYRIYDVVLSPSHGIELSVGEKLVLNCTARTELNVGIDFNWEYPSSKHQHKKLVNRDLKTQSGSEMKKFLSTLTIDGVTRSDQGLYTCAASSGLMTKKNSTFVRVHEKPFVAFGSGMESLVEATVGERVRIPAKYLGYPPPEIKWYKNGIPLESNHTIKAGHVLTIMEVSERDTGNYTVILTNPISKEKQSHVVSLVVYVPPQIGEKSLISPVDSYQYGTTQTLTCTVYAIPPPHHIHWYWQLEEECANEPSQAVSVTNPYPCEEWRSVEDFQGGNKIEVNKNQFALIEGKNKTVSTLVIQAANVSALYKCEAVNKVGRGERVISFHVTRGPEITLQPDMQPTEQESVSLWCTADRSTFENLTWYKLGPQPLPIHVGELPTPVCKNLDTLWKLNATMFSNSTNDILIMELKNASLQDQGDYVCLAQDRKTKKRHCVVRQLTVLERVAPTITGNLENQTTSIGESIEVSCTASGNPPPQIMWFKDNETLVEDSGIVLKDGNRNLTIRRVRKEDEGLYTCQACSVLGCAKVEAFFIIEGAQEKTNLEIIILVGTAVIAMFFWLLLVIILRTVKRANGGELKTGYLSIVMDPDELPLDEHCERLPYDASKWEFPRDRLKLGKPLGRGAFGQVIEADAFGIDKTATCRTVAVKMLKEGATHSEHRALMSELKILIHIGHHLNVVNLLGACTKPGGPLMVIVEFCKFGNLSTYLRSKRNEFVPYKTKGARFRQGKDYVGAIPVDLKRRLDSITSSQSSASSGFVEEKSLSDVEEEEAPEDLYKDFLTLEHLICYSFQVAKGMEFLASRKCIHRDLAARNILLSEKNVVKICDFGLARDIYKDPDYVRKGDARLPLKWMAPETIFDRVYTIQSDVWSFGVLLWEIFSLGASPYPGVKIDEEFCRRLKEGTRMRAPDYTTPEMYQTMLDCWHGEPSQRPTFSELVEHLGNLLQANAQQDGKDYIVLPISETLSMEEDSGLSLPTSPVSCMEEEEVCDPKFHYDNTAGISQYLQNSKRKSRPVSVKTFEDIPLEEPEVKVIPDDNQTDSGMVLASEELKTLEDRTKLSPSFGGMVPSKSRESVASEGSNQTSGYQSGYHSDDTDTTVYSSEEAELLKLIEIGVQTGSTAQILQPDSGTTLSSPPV
Procedure, shortened: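 KDR tyrosine phosphorylation detected by luminescence after overnight 4° C capture of 20 μg lysate protein with PY20:AP antibody. Lysates came from cells given compound for 2 h at 37° C, then final 20 ng/ml VEGF for 5 min; compound-free medium as control.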

[3] = target: T3, Tek (Homo sapiens, UniProt Q02763); experiment: Recombinant GST-Tek (Tie-2) tyrosine kinase assay (33P into poly(Glu,Tyr)); conditions: Examples 1 to 169
T3 construct: amino acids 773-1124 of the cytoplasmic kinase domain of human Tek, N-terminally fused to GST; made in house; host or cells: Sf9 insect cells (baculovirus)
T3 sequence (Q02763 773-1124): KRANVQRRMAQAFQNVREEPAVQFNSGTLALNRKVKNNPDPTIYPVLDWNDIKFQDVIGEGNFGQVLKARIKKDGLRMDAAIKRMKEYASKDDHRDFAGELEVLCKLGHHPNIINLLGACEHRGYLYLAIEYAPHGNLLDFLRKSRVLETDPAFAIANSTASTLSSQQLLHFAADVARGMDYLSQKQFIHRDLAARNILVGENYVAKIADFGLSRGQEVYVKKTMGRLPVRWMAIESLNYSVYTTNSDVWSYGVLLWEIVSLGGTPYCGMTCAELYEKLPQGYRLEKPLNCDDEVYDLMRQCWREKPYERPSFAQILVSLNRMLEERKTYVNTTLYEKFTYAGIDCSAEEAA
Procedure, shortened: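 GST-fused human Tek kinase domain (aa 773-1124), baculovirus-expressed, 150 ng per reaction; 10 μg/mL poly(Glu,Tyr) 4:1, 4.0 μM [γ-33P]ATP, 3 mM MnCl2/3 mM MgCl2, pH 7.5, 30 min at ambient temperature. 33P uptake read on PVDF filters; IC50 by linear regression from four concentrations in duplicate.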

Compound COc1ccc(Cl)c(NC(=O)N(C)c2cc(Nc3cccc(N4CCN(C)CC4)c3)ncn2)c1Cl [Example 60, 3-(2,6-Dichloro-3-methoxy-phenyl)-1-methyl-1-{6-[3-(4-methyl-piperazin-1-yl)-phenylamino]-pyrimidin-4-yl}-urea] has an inhibition at 10 µM [1] of 27 to 100%, an inhibition at 10 µM [2] of 67 to 100% and an inhibition at 10 µM [3] of 12 to 100%.

For CCN1CCN(Cc2cccc(Nc3cc(N(C)C(=O)Nc4c(Cl)c(OC)cc(OC)c4Cl)ncn3)c2)CC1 [Example 150, 3-(2,6-Dichloro-3,5-dimethoxy-phenyl)-1-{6-[3-(4-ethyl-piperazin-1-ylmethyl)-phenylamino]-pyrimidin-4-yl}-1-methyl-urea], the inhibition at 10 µM [1] was 27 to 100%, the inhibition at 10 µM [2] was 67 to 100% and the inhibition at 10 µM [3] was 12 to 100%.

In the case of COc1cc(NC(=O)N(CCN2CCN(C)CC2)c2cc(Nc3ccccc3)ncn2)c(Cl)c(OC)c1 [Example 57, 3-(2-Chloro-3,5-dimethoxy-phenyl)-1-[2-(4-methyl-piperazin-1-yl)-ethyl]-1-(6-phenylamino-pyrimidin-4-yl)-urea], the inhibition at 10 µM [1] is reported as 27 to 100%, the inhibition at 10 µM [2] is reported as 67 to 100% and the inhibition at 10 µM [3] is reported as 12 to 100%.

Work on COc1cc(NC(=O)Nc2cc(Nc3ccc(N4CCN(C)CC4)cc3)ncn2)cc(OC)c1 [Example 18, 1-(3,5-Dimethoxy-phenyl)-3-{6-[4-(4-methyl-piperazin-1-yl)-phenyl-amino]-pyrimidin-4-yl}-urea] yielded an inhibition at 10 µM [1] of 27 to 100%, an inhibition at 10 µM [2] of 67 to 100% and an inhibition at 10 µM [3] of 12 to 100%.

CN1CCN(c2ccc(Nc3cc(NC(=O)Nc4cc(C(F)(F)F)cc(C(F)(F)F)c4)ncn3)cc2)CC1 [Example 20, 1-(3,5-Bis-trifluoromethyl-phenyl)-3-{6-[4-(4-methyl-piperazin-1-yl)-phenylamino]-pyrimidin-4-yl}-urea] gave an inhibition at 10 µM [1] of 27 to 100%, an inhibition at 10 µM [2] of 67 to 100% and an inhibition at 10 µM [3] of 12 to 100%.

With COc1cc(OC)c(Cl)c(NC(=O)Nc2cc(Nc3ccc(CN(C)C)c(C(F)(F)F)c3)ncn2)c1Cl [Example 159, 1-(2,6-Dichloro-3,5-dimethoxy-phenyl)-3-[6-(4-dimethylaminomethyl-3-trifluoromethyl-phenylamino)-pyrimidin-4-yl]-urea] the inhibition at 10 µM [1] was 27 to 100%, the inhibition at 10 µM [2] was 67 to 100% and the inhibition at 10 µM [3] was 12 to 100%.

In the case of COc1cc(NC(=O)Nc2cc(Nc3cccc(Cl)c3)ncn2)cc(OC)c1OC [Example 136, 1-[6-(3-Chloro-phenylamino)-pyrimidin-4-yl]-3-(3,4,5-trimethoxy-phenyl)-urea], the inhibition at 10 µM [1] is reported as 27 to 100%, the inhibition at 10 µM [2] is reported as 67 to 100% and the inhibition at 10 µM [3] is reported as 12 to 100%.

Work on COc1cc(NC(=O)N(C)c2cc(Nc3cccc(OCCN(C)C)c3)ncn2)c(Cl)c(OC)c1 [Example 54, 3-(2-Chloro-3,5-dimethoxy-phenyl)-1-{6-[3-(2-dimethylamino-ethoxy)-phenylamino]-pyrimidin-4-yl}-1-methyl-urea] yielded an inhibition at 10 µM [1] of 27 to 100%, an inhibition at 10 µM [2] of 67 to 100% and an inhibition at 10 µM [3] of 12 to 100%.

CN1CCN(c2cccc(Nc3cc(NC(=O)Nc4cc(Cl)cc(Cl)c4)ncn3)c2)CC1 [Example 11, 1-(3,5-Dichloro-phenyl)-3-{6-[3-(4-methyl-piperazin-1-yl)-phenylamino]-pyrimidin-4-yl}-urea] was tested, and the inhibition at 10 µM [1] was 27 to 100%, the inhibition at 10 µM [2] was 67 to 100% and the inhibition at 10 µM [3] was 12 to 100%.

In the case of COc1cc(OC)c(Cl)c(NC(=O)N(C)c2cc(Nc3ccc(CN(C)C)c(C(F)(F)F)c3)ncn2)c1Cl [Example 167, 3-(2,6-Dichloro-3,5-dimethoxy-phenyl)-1-[6-(4-dimethylaminomethyl-3-trifluoromethyl-phenylamino)-pyrimidin-4-yl]-1-methyl-urea], the inhibition at 10 µM [1] is reported as 27 to 100%, the inhibition at 10 µM [2] is reported as 67 to 100% and the inhibition at 10 µM [3] is reported as 12 to 100%.

In the case of COc1ccc(NC(=O)Nc2cc(Nc3ccc(N4CCN(C)CC4)cc3)ncn2)cc1OC [Example 30, 1-(3,4-Dimethoxy-phenyl)-3-{6-[4-(4-methyl-piperazin-1-yl)-phenyl-amino]-pyrimidin-4-yl}-urea], the inhibition at 10 µM [1] is reported as 27 to 100%, the inhibition at 10 µM [2] is reported as 67 to 100% and the inhibition at 10 µM [3] is reported as 12 to 100%.

For CCN(CC)CCOc1ccc(Nc2cc(N(C)C(=O)Nc3c(Cl)c(OC)cc(OC)c3Cl)ncn2)cc1 [Example 152, 3-(2,6-Dichloro-3,5-dimethoxy-phenyl)-1-{6-[4-(2-diethylamino-ethoxy)-phenylamino]-pyrimidin-4-yl}-1-methyl-urea], the inhibition at 10 µM [1] was 27 to 100%, the inhibition at 10 µM [2] was 67 to 100% and the inhibition at 10 µM [3] was 12 to 100%.

Compound COc1ccc(Cl)c(NC(=O)N(C)c2cc(Nc3ccc(CN4CCN(C)CC4)cc3)ncn2)c1Cl [Example 62, 3-(2,6-Dichloro-3-methoxy-phenyl)-1-methyl-1-{6-[4-(4-methyl-piperazin-1-ylmethyl)-phenylamino]-pyrimidin-4-yl}-urea] has an inhibition at 10 µM [1] of 27 to 100%, an inhibition at 10 µM [2] of 67 to 100% and an inhibition at 10 µM [3] of 12 to 100%.

Work on CN(C(=O)Nc1cccc(C(F)(F)F)c1)c1cc(Nc2ccc(F)cc2)ncn1 [Example 121, 1-[6-(4-Fluoro-phenylamino)-pyrimidin-4-yl]-1-methyl-3-(3-trifluoro-methyl-phenyl)-urea] yielded an inhibition at 10 µM [1] of 27 to 100%, an inhibition at 10 µM [2] of 67 to 100% and an inhibition at 10 µM [3] of 12 to 100%.

Work on COc1cc(NC(=O)Nc2cc(Nc3ccc(N4CCN(C)CC4)cc3)ncn2)ccc1F [Example 32, 1-(4-Fluoro-3-methoxy-phenyl)-3-{6-[4-(4-methyl-piperazin-1-yl)-phenyl-amino]-pyrimidin-4-yl}-urea] yielded an inhibition at 10 µM [1] of 27 to 100%, an inhibition at 10 µM [2] of 67 to 100% and an inhibition at 10 µM [3] of 12 to 100%.

Work on COc1ccc(CN(C(=O)Nc2c(Cl)ccc(OC)c2Cl)c2cc(Nc3ccc(N4CCN(C)CC4)cc3)ncn2)cn1 [Example 63, 3-(2,6-Dichloro-3-methoxy-phenyl)-1-(6-methoxy-pyridin-3-ylmethyl)-1-{6-[4-(4-methyl-piperazin-1-yl)-phenylamino]-pyrimidin-4-yl}-urea] yielded an inhibition at 10 µM [1] of 27 to 100%, an inhibition at 10 µM [2] of 67 to 100% and an inhibition at 10 µM [3] of 12 to 100%.

In the case of CCN(CC)CCOc1ccc(Nc2cc(NC(=O)Nc3ccccc3Br)ncn2)cc1 [Example 101, 1-(2-Bromo-phenyl)-3-{6-[4-(2-diethylamino-ethoxy)-phenylamino]-pyrimidin-4-yl}-urea], the inhibition at 10 µM [1] is reported as 27 to 100%, the inhibition at 10 µM [2] is reported as 67 to 100% and the inhibition at 10 µM [3] is reported as 12 to 100%.

In the case of CN1CCN(c2ccc(Nc3cc(NC(=O)Nc4ccccc4Cl)ncn3)cc2)CC1 [Example 93, 1-(2-Chloro-phenyl)-3-{6-[4-(4-methyl-piperazin-1-yl)-phenylamino]-pyrimidin-4-yl}-urea], the inhibition at 10 µM [1] is reported as 27 to 100%, the inhibition at 10 µM [2] is reported as 67 to 100% and the inhibition at 10 µM [3] is reported as 12 to 100%.

COc1ccc(Cl)c(NC(=O)Nc2cc(Nc3cccc(OCCN4CCOCC4)c3)ncn2)c1Cl [Example 37, 1-(2,6-Dichloro-3-methoxy-phenyl)-3-{6-[3-(2-morpholin-4-yl-ethoxy)-phenylamino]-pyrimidin-4-yl}-urea] showed an inhibition at 10 µM [1] of 27 to 100%, an inhibition at 10 µM [2] of 67 to 100% and an inhibition at 10 µM [3] of 12 to 100%.

In the case of O=C(Nc1cc(Nc2ccc(OCCCN3CCOCC3)cc2)ncn1)Nc1c(Cl)cccc1Cl [Example 98, 1-(2,6-Dichloro-phenyl)-3-{6-[4-(3-morpholin-4-yl-propoxy)-phenylamino]-pyrimidin-4-yl}-urea], the inhibition at 10 µM [1] is reported as 27 to 100%, the inhibition at 10 µM [2] is reported as 67 to 100% and the inhibition at 10 µM [3] is reported as 12 to 100%.

O=C(Nc1cc(N[C@H]2CC[C@H](O)CC2)ncn1)Nc1c(Cl)cccc1Cl [Example 92, 1-(2,6-Dichloro-phenyl)-3-[6-((trans)-4-hydroxy-cyclohexylamino)-pyrimidin-4-yl]-urea] showed an inhibition at 10 µM [1] of 27 to 100%, an inhibition at 10 µM [2] of 67 to 100% and an inhibition at 10 µM [3] of 12 to 100%.

Compound COc1cc(OC)c(Cl)c(NC(=O)N(C)c2cc(Nc3ccc(OC4CCN(C)CC4)cc3)ncn2)c1Cl [Example 165, 3-(2,6-Dichloro-3,5-dimethoxy-phenyl)-1-methyl-{6-[4-(1-methyl-piperidin-4-yloxy)-phenylamino]-pyrimidin-4-yl}-urea] has an inhibition at 10 µM [1] of 27 to 100%, an inhibition at 10 µM [2] of 67 to 100% and an inhibition at 10 µM [3] of 12 to 100%.

For CCN(CC)c1ccc(Nc2cc(NC(=O)Nc3c(F)cccc3F)ncn2)cc1 [Example 105, 1-[6-(4-Diethylamino-phenylamino)-pyrimidin-4-yl]-3-(2,6-difluoro-phenyl)-urea], the inhibition at 10 µM [1] was 27 to 100%, the inhibition at 10 µM [2] was 67 to 100% and the inhibition at 10 µM [3] was 12 to 100%.

Compound O=C(Nc1cc(Nc2cccc(Cl)c2)ncn1)Nc1c(Cl)cccc1Cl [Example 137, 1-[6-(3-Chloro-phenylamino)-pyrimidin-4-yl]-3-(2,6-dichloro-Phenyl)-urea] has an inhibition at 10 µM [1] of 27 to 100%, an inhibition at 10 µM [2] of 67 to 100% and an inhibition at 10 µM [3] of 12 to 100%.

CN(C(=O)Nc1c(Cl)cccc1Cl)c1cc(Nc2ccc(C(C)(C)O)cc2)ncn1 [Example 111, 3-(2,6-Dichloro-Phenyl)-1-{6-[4-(1-hydroxy-1-methyl-ethyl)-phenylamino]-pyrimidin-4-yl}-1-methyl-urea] was tested, and the inhibition at 10 µM [1] was 27 to 100%, the inhibition at 10 µM [2] was 67 to 100% and the inhibition at 10 µM [3] was 12 to 100%.

With COc1ccc(NC(=O)Nc2cc(Nc3ccc(N4CCN(C)CC4)cc3)ncn2)cc1Cl [Example 24, 1-(3-Chloro-4-methoxy-phenyl)-3-{6-[4-(4-methyl-piperazin-1-yl)-phenyl-amino]-pyrimidin-4-yl}-urea] the inhibition at 10 µM [1] was 27 to 100%, the inhibition at 10 µM [2] was 67 to 100% and the inhibition at 10 µM [3] was 12 to 100%.
